# Literature values, collected in US20010028878A1, “In vitro maturation of human oocytes in one day” (priority 1998, published 2001).
# System: human oocytes
# Settings: presence of insulin in the culture medium; recent research
substance,measurement,value
insulin,effect on the chance for successful pregnancy,negative effect
